pIC50: −log10 of the molar value.
Legend:
Platelet [1] = test: Inhibition of U46619-induced human platelet aggregation; format: functional, cell-based
Platelet [2] = test: Inhibition of collagen-induced human platelet aggregation; format: functional, cell-based
Platelet [3] = test: Inhibition of thrombin-induced human platelet aggregation; format: functional, cell-based
Platelet [4] = test: Inhibition of SFLLRN-induced human platelet aggregation; format: functional, cell-based
Platelet [5] = test: Inhibition of GYPGKF-induced human platelet aggregation; format: functional, cell-based
[6] = target: T1, Proteinase-activated receptor 4 (Homo sapiens) (UniProt Q96RI0); test: Inhibition of PAR4-mediated GYPGKF-induced ATP release in human platelet assessed per 3*10^8 platelets at 1 uM
T1 sequence (whole entry): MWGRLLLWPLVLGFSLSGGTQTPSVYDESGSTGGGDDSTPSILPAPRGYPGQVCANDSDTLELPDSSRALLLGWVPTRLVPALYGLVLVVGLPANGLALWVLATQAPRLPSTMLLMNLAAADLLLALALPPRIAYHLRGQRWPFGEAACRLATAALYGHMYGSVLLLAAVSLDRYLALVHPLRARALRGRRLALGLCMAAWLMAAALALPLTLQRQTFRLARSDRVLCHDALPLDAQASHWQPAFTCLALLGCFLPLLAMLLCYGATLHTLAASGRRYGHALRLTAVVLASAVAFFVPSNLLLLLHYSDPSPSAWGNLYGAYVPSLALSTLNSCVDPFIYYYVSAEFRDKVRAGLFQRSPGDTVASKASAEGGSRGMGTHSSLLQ

[7] = target: T1, Proteinase-activated receptor 4 (Homo sapiens); test: Inhibition of PAR4-mediated GYPGKF-induced P-selectin expression in human platelet at 1 uM
Platelet [8] = test: Inhibition of arachidonic acid-stimulated thromboxane B2 formation in human platelet assessed per 3*10^8 platelets at 5 uM; format: functional
[9] = target: T1, Proteinase-activated receptor 4 (Homo sapiens); test: Inhibition of PAR4-mediated GYPGKF-induced ATP release in human platelet assessed per 3*10^8 platelets at 5 uM
[10] = target: T1, Proteinase-activated receptor 4 (Homo sapiens); test: Inhibition of PAR4-mediated GYPGKF-induced P-selectin expression in human platelet at 5 uM
Platelet [11] = test: Inhibition of arachidonic acid-stimulated thromboxane B2 formation in human platelet at 5 uM; format: functional
[12] = target: T1, Proteinase-activated receptor 4 (Homo sapiens); test: Inhibition of PAR4-mediated GYPGKF-induced ATP release in human platelet assessed per 3*10^8 platelets at 0.1 uM
[13] = target: T1, Proteinase-activated receptor 4 (Homo sapiens); test: Inhibition of PAR4-mediated GYPGKF-induced P-selectin expression in human platelet at 0.1 uM
[14] = target: T1, Proteinase-activated receptor 4 (Homo sapiens); test: Inhibition of PAR4-mediated GYPGKF-induced P-selectin expression in human platelet at 0.05 uM
[15] = target: T1, Proteinase-activated receptor 4 (Homo sapiens); test: Inhibition of PAR4-mediated GYPGKF-induced ATP release in human platelet assessed per 3*10^8 platelets at 0.2 uM

| SMILES | pIC50 (Platelet [1]) | pIC50 (Platelet [2]) | pIC50 (Platelet [3]) | pIC50 (Platelet [4]) | pIC50 (Platelet [5]) | Activity [6] [ng] | inhibition [7] [%] | Activity (Platelet [8]) [ng] | Activity [9] [ng] | inhibition [10] [%] | inhibition at 5 µM (Platelet [11]) [%] | Activity [12] [ng] | inhibition [13] [%] | inhibition [14] [%] | Activity [15] [ng] |
| --- | --- | --- | --- | --- | --- | --- | --- | --- | --- | --- | --- | --- | --- | --- | --- |
| CCOC(=O)c1ccc(-c2nn(Cc3ccc(F)cc3)c3ccccc23)cc1 | < 5.00 | < 5.00 | < 5.00 | < 5.00 | 6.72 | – | – | – | – | – | – | – | – | – | – |
| CCOC(=O)c1ccc(-c2nn(Cc3ccccn3)c3ccccc23)cc1 | < 5.00 | < 5.00 | < 5.00 | < 5.00 | 6.54 | 3.7 | 1.2 | 1013.7 | – | – | – | – | – | – | – |
| CCCn1nc(-c2ccc(C(=O)OCC)cc2)c2ccccc21 | < 5.00 | < 5.00 | < 5.00 | < 5.00 | 6.31 | – | – | – | – | – | – | – | – | – | – |
| CC(C)NC(=O)c1ccc(-c2nn(Cc3ccccc3)c3ccccc23)cc1 | < 5.00 | < 5.00 | < 5.00 | < 5.00 | < 5.00 | – | – | – | – | – | – | – | – | – | – |
| CCNC(=O)c1ccc(-c2nn(Cc3ccccc3)c3ccccc23)cc1 | < 5.00 | < 5.00 | < 5.00 | < 5.00 | 5.25 | – | – | – | – | – | – | – | – | – | – |
| CCCCn1nc(-c2ccc(C(=O)OCC)cc2)c2ccccc21 | < 5.00 | < 5.00 | < 5.00 | < 5.00 | 6.17 | – | – | – | – | – | – | – | – | – | – |
| CO/N=C\c1ccc(-c2nn(Cc3ccccc3)c3ccccc23)cc1 | < 5.00 | < 5.00 | < 5.00 | < 5.00 | < 5.00 | – | – | – | – | – | – | – | – | – | – |
| O=C(O)c1ccc(-c2nn(Cc3ccccc3)c3ccccc23)cc1 | < 5.00 | < 5.00 | < 5.00 | < 5.00 | < 5.00 | – | – | – | – | – | – | – | – | – | – |
| CCOC(=O)c1cccc(-c2nn(Cc3ccccc3)c3ccccc23)c1 | < 5.00 | < 5.00 | < 5.00 | < 5.00 | < 5.00 | – | – | – | – | – | – | – | – | – | – |
| CC(C)OC(=O)c1ccc(-c2nn(Cc3ccccc3)c3ccccc23)cc1 | < 5.00 | < 5.00 | < 5.00 | < 5.00 | < 5.00 | – | – | – | – | – | – | – | – | – | – |
| CCOC(=O)c1ccc(-c2nn(Cc3cccnc3)c3ccccc23)cc1 | < 5.00 | < 5.00 | < 5.00 | < 5.00 | 5.26 | – | – | – | – | – | – | – | – | – | – |
| CCOC(=O)c1ccc(-c2nn(Cc3ccncc3)c3ccccc23)cc1 | < 5.00 | < 5.00 | < 5.00 | < 5.00 | 5.25 | – | – | – | – | – | – | – | – | – | – |
| CCOC(=O)c1ccc(-c2c3ccccc3nn2Cc2ccccc2)cc1 | < 5.00 | < 5.00 | < 5.00 | < 5.00 | < 5.00 | – | – | – | – | – | – | – | – | – | – |
| CCOC(=O)c1ccc(-c2nn(Cc3cccc(OC)c3)c3ccccc23)cc1 | < 5.00 | < 5.00 | < 5.00 | < 5.00 | 6.59 | – | – | – | – | – | – | – | – | – | – |
| CCOC(=O)c1ccc(-c2nn(Cc3ccccc3F)c3ccccc23)cc1 | < 5.00 | < 5.00 | < 5.00 | < 5.00 | 6.96 | – | – | – | – | – | – | – | – | – | – |
| CCOC(=O)/C=C/c1ccc(-c2nn(Cc3ccccc3)c3ccccc23)cc1 | < 5.00 | < 5.00 | < 5.00 | < 5.00 | < 5.00 | – | – | – | – | – | – | – | – | – | – |
| CNC(=O)c1ccc(-c2nn(Cc3ccccc3)c3ccccc23)cc1 | < 5.00 | < 5.00 | < 5.00 | < 5.00 | < 5.00 | – | – | – | – | – | – | – | – | – | – |
| CCOC(=O)c1ccc(-c2nn(-c3ccccc3)c3ccccc23)cc1 | < 5.00 | 5.32 | < 5.00 | < 5.00 | 5.58 | – | – | 24.4 | 1.8 | 1.6 | 98.5 | – | – | – | – |

| SMILES | pIC50 (Platelet [1]) | pIC50 (Platelet [2]) | pIC50 (Platelet [3]) | pIC50 (Platelet [4]) | pIC50 (Platelet [5]) | Activity [6] [ng] | inhibition [7] [%] | Activity (Platelet [8]) [ng] | Activity [9] [ng] | inhibition [10] [%] | inhibition at 5 µM (Platelet [11]) [%] | Activity [12] [ng] | inhibition [13] [%] | inhibition [14] [%] | Activity [15] [ng] |
| --- | --- | --- | --- | --- | --- | --- | --- | --- | --- | --- | --- | --- | --- | --- | --- |
| OCc1ccc(-c2nn(Cc3ccccc3)c3ccccc23)cc1 | < 5.00 | < 5.00 | < 5.00 | < 5.00 | < 5.00 | – | – | – | – | – | – | – | – | – | – |
| CCOC(=O)c1ccc(-c2nn(Cc3ccccc3)c3ccccc23)cc1 | < 5.00 | < 5.00 | < 5.00 | < 5.00 | 6.89 | – | – | 1408.3 | – | – | – | 74.4 | 7.7 | 67.2 | 12.7 |
| CCOC(=O)c1ccc(-c2nn(Cc3ccccc3Cl)c3ccccc23)cc1 | < 5.00 | < 5.00 | < 5.00 | < 5.00 | 6.64 | – | – | – | – | – | – | – | – | – | – |
| CCOC(=O)c1ccc(-c2nn(C(C)C)c3ccccc23)cc1 | < 5.00 | < 5.00 | < 5.00 | < 5.00 | 6.19 | – | – | – | – | – | – | – | – | – | – |
| CCOC(=O)c1ccc(-c2nn(Cc3ccc(Cl)cc3)c3ccccc23)cc1 | < 5.00 | < 5.00 | < 5.00 | < 5.00 | 6.92 | – | – | – | – | – | – | – | – | – | – |
| CCCOC(=O)c1ccc(-c2nn(Cc3ccccc3)c3ccccc23)cc1 | < 5.00 | < 5.00 | < 5.00 | < 5.00 | < 5.00 | – | – | – | – | – | – | – | – | – | – |
| CCOC(=O)c1ccc(-c2nn(C)c3ccccc23)cc1 | < 5.00 | < 5.00 | < 5.00 | < 5.00 | 6.57 | – | – | – | – | – | – | – | – | – | – |
| CCOC(=O)c1ccc(-c2nn(Cc3cccc(Cl)c3)c3ccccc23)cc1 | < 5.00 | < 5.00 | < 5.00 | < 5.00 | 7.10 | – | – | 1368.4 | – | – | – | 58.9 | 5.2 | 39.3 | 8.9 |
| CCOC(=O)c1ccc(-c2nn(Cc3ccoc3)c3ccccc23)cc1 | < 5.00 | < 5.00 | < 5.00 | < 5.00 | 6.24 | – | – | – | – | – | – | – | – | – | – |
| COC(=O)c1ccc(-c2nn(Cc3ccccc3)c3ccccc23)cc1 | < 5.00 | < 5.00 | < 5.00 | < 5.00 | 6.25 | – | – | – | – | – | – | – | – | – | – |
| CCOC(=O)c1ccc(-c2nn(Cc3ccccc3OC)c3ccccc23)cc1 | < 5.00 | < 5.00 | < 5.00 | < 5.00 | 6.33 | – | – | – | – | – | – | – | – | – | – |
| CCCNC(=O)c1ccc(-c2nn(Cc3ccccc3)c3ccccc23)cc1 | < 5.00 | 5.02 | < 5.00 | < 5.00 | < 5.00 | – | – | – | – | – | – | – | – | – | – |
| CCOC(=O)c1ccc(-c2nn(CC)c3ccccc23)cc1 | < 5.00 | < 5.00 | < 5.00 | < 5.00 | 6.44 | – | – | – | – | – | – | – | – | – | – |
| CCOC(=O)c1ccc(-c2nn(Cc3ccco3)c3ccccc23)cc1 | < 5.00 | < 5.00 | < 5.00 | < 5.00 | 6.47 | – | – | – | – | – | – | – | – | – | – |
| NC(=O)c1ccc(-c2nn(Cc3ccccc3)c3ccccc23)cc1 | < 5.00 | < 5.00 | < 5.00 | < 5.00 | < 5.00 | – | – | – | – | – | – | – | – | – | – |
| CCOC(=O)c1ccc(-c2nn(Cc3cccc(F)c3)c3ccccc23)cc1 | < 5.00 | < 5.00 | < 5.00 | < 5.00 | 6.57 | – | – | – | – | – | – | – | – | – | – |
| CCOC(=O)c1ccc(-c2nn(Cc3ccc(OC)cc3)c3ccccc23)cc1 | < 5.00 | < 5.00 | < 5.00 | < 5.00 | 6.21 | – | – | – | – | – | – | – | – | – | – |

Source: ChEMBL document CHEMBL1143961, “Synthesis and antiplatelet activity of ethyl 4-(1-benzyl-1H-indazol-3-yl)benzoate (YD-3) derivatives” (Bioorg Med Chem, 2008)
